Laboratory results from patent US7084239B1, “Cancer peptides of NY-ESO-1/CAG-3” (The United States of America as represented by the …, priority 1997, dated 2006).

Experiments:
CTL clone 5 = assay: GM-CSF release by CTL clone 5 on peptide-pulsed EBV B cells; format: cell-based, human; conditions: for CTL clone 5 GM-CSF release: 1510EBV cells incubated with peptide at 0.1 μg/ml for 90 min; for GM-CSF release by CTL clone 5, EXPT. 2 (586EBV): 586EBV cells; for GM-CSF release by CTL clone 5, EXPT. 2 (586EBV) / GM-CSF release by CTL clone 5, EXPT. 1 (1510EBV): peptide 0.1 μg/ml for 90 min, 5 × 10^4 CTL clone 5; for GM-CSF release by CTL clone 5, EXPT. 1 (1510EBV): 1510EBV cells
Method: (§1) DNA transfection and GM-CSF assay were done as previously described (Wang, R. F., P. F. Robbins, Y. Kawakami, X. Q. Kang, and S. A. Rosenberg, 1995, J. Exp. Med. 181:799–804). Briefly, […] of DNA carrying a different fragment and 50 ng of the HLA-A31 DNA were mixed with 2 μl of lipofectamine in 100 μl of serum-free DMEM for 15–45 min. The DNA/lipofectamine mixture was then added to the COS-7 (5×10^4) cells and incubated overnight. The following day, cells were washed twice with DMEM medium. TIL586, CTL clone 5 or CTL clone 10 were added at a concentration of 5×10^4 cells/well in AIM-V medium containing 120 IU/ml of IL-2. After 18–24 h incubation, 100 μl of supernatant was collected and GM-CSF was measured in a standard ELISA assay (R+D Systems, Minneapolis, Minn.). For peptides, 586EBV, 1510EBV and T2 cells were incubated with peptides at 37° C. for 90 min, and then washed three times with AIM-V medium containing 120 IU/ml of IL-2. T cells were added and incubated for additional 18–24 h, 100 μl of supernatant was collected for GM-CSF assay. In some experiments, IFN-γ release assays were done using a standard ELISA kit (Endogen, Woburn, Mass.).
These peptides were pulsed onto HLA-A31-positive 1510EBV B cells and tested for their ability to stimulate cytokine release by CTL clone 5. […] CTL clone 10 recognized the same peptide as CTL clone 5 (data not shown). […] The reactivity of CTL clone 5 was undetectable when either the ESO9-54 or the ESO10-127 peptides were used at concentrations below 100 nM to sensitize EBV cells.

CTL clone 2 = assay: T cell recognition (GM-CSF release) of peptide-pulsed EBV B cells by CTL clone 2; format: cell-based, human; conditions: peptide pulsed onto 1510EBV or 586EBV B cells
Description: FIGS. 7A–7C. An alternative open reading frame of the NY-ESO-1 gene and antigenic peptides recognized by CTL. FIG. 7A. Identification of antigenic peptides from the ORF2. Thirty peptides were synthesized based on all potential ORFs and screened. Representative data are shown here. Seven peptides derived from ORF2 (see FIG. 3A) were pulsed on HLA-A31 positive 1510EBV B cells and tested for T cell recognition based on GM-CSF release ([…], SEQ ID NO: 123; […], SEQ ID NO: 124; […], SEQ ID NO: 125; […], SEQ ID NO: 46; […], SEQ ID NO: 47; […], SEQ ID NO: 126; and […], SEQ ID NO: 127). 1510 EBV alone was used as a negative control. FIG. 7B. 1510EBV B cells were labeled with chromium for 2 h. The ESORF2-10-18 peptide was then pulsed on the chromium-labeled […] (solid square) and HLA-A31-negative 1102EBV (open circle) at different concentrations. 1510EBV pulsed with ESO10-53, which was recognized by CTL clone 5, was used for the specificity control (solid triangle). After peptide incubation and three washes, cytolysis of target cells by CTL-clone 2 was determined in a 4-h chromium release assay at an E:T ratio of 20:1. FIG. 7C. Several tumor lines and fresh breast tumors were tested for recognition by CTL clone 2 to determine whether the ORF2 is translated in different tumors. 1510EBV B cells pulsed with […] (SEQ ID NO: 25) (ESO10-53), […] (SEQ ID NO: 47) (ORF2-10-18), or alone were included to evaluate the reactivity and specificity of CTL clone 2 and 5. Expression of HLA-A31 on the tumor cells is indicated.
as §1, with “For peptides, 586EBV, 1510EBV and T2 cells were incubated with peptides at 37° C. for 90 min, and then washed three times with AIM-V medium containing 120 IU/ml of IL-2. T cells were added and incubated for additional 18–24 h, 100 μl of supernatant was collected for GM-CSF assay. In some experiments, IFN-γ release assays were done using a standard ELISA kit (Endogen, Woburn, Mass.).” left out
CTL clone 5 and TIL1244 were used for the specificity controls. […] To test the hypothesis that CTL may recognize a peptide from a gene product translated from an alternative open reading frame of the same gene, synthetic peptides were made with HLA-A31 Binding motif on the basis of amino acid sequence predicted from the second open reading frames (ORF2) (FIG. 3A). […]

| Sequence | CTL clone 5 GM-CSF release (CTL clone 5) | GM-CSF release by CTL clone 5, EXPT. 2 (586EBV) (CTL clone 5) | GM-CSF release by CTL clone 5, EXPT. 1 (1510EBV) (CTL clone 5) | further results |
| --- | --- | --- | --- | --- |
| LNGCCRCGAR (listed as Homo sapiens) [ESO10-72] | <50 (SEQ. ID NO: 24) pg/ml |  |  |  |
| AGAARASGPGGGAPR (listed as Homo sapiens) |  | 532 (SEQ. ID NO: 26) | 728 |  |
| SGPGGGAPRG (listed as Homo sapiens) |  | <50 (SEQ. ID NO: 33) | <50 |  |
| GAARASGPGGGAPR (listed as Homo sapiens) |  | 678 (SEQ. ID NO: 27) | 659 |  |
| ARASGPGGGAPR (listed as Homo sapiens) |  | 738 (SEQ. ID NO: 29) | 840 |  |
| RCGARGPESR (listed as Homo sapiens) [ESO10-77] | <50 (SEQ. ID NO: 20) pg/ml |  |  |  |
| GATGGRGPR (listed as Homo sapiens) [ESO9-38] | <50 (SEQ. ID NO: 9) pg/ml |  |  |  |
| ASGPGGGAPRG (listed as Homo sapiens) |  | <50 (SEQ. ID NO: 32) | <50 |  |
| VSGPGGGAPR (listed as Homo sapiens) |  | 666 (SEQ. ID NO: 42) | 825 |  |
| RSGPGGGAPR (listed as Homo sapiens) |  | <50 (SEQ. ID NO: 44) | <50 |  |
| AQPPSGQRR (listed as Homo sapiens) [ESO9-90] | <50 (SEQ. ID NO: 6) pg/ml |  |  |  |
| AVGPGGGAPR (listed as Homo sapiens) |  | 512 (SEQ. ID NO: 37) | 556 |  |
| LSGPGGGAPR (listed as Homo sapiens) |  | <50 (SEQ. ID NO: 43) | <50 |  |
| FLAQPPSGQR (listed as Homo sapiens) [ESO10-170] | <50 (SEQ. ID NO: 18) pg/ml |  |  |  |
| ATGPGGGAPR (listed as Homo sapiens) |  | 1158 (SEQ. ID NO: 38) | 1630 |  |
| AAGPGGGAPR (listed as Homo sapiens) |  | 676 (SEQ. ID NO: 34) | 688 |  |
| TIRLTAADHR (listed as Homo sapiens) [ESO10-34] | <50 (SEQ. ID NO: 16) pg/ml |  |  |  |
| SGPGGGAPR (listed as Homo sapiens) [ESO9-54] | 304 (SEQ. ID NO: 14) pg/ml | <50 (SEQ. ID NO: 14) | <50 | Recognition by CTL clone 5 (cytokine release), in words (CTL clone 5; peptide pulsed onto HLA-A31-positive 1510EBV or 586EBV B cells): weakly recognized |
| AASGLNGCCR (listed as Homo sapiens) [ESO10-68] | <50 (SEQ. ID NO: 21) pg/ml |  |  |  |

| Sequence | CTL clone 5 GM-CSF release (CTL clone 5) | GM-CSF release by CTL clone 5, EXPT. 2 (586EBV) (CTL clone 5) | GM-CSF release by CTL clone 5, EXPT. 1 (1510EBV) (CTL clone 5) | further results |
| --- | --- | --- | --- | --- |
| ASGPGGGAPK (listed as Homo sapiens) |  | <50 (SEQ. ID NO: 39) | <50 |  |
| GPGGGAPR (listed as Homo sapiens) |  | <50 (SEQ. ID NO: 31) | <50 |  |
| RGPRGAGAAR (listed as Homo sapiens) [ESO10-44] | <50 (SEQ. ID NO: 23) pg/ml |  |  |  |
| AIGPGGGAPR (listed as Homo sapiens) |  | 550 (SEQ. ID NO: 35) | 428 |  |
| RASGPGGGAPR (listed as Homo sapiens) |  | 708 (SEQ. ID NO: 30) | 851 |  |
| ASGPGGGAPH (listed as Homo sapiens) |  | <50 (SEQ. ID NO: 40) | <50 |  |
| IRLTAADHR (listed as Homo sapiens) [ESO9-35] | <50 (SEQ. ID NO: 13) pg/ml |  |  |  |
| ALGPGGGAPR (listed as Homo sapiens) |  | 378 (SEQ. ID NO: 36) | 200 |  |
| LAQPPSGQR (listed as Homo sapiens) [ESO9-89] | <50 (SEQ. ID NO: 11) pg/ml |  |  |  |
| TPMEAELARR (listed as Homo sapiens) [ESO10-98] | <50 (SEQ. ID NO: 19) pg/ml |  |  |  |
| GPRGAGAAR (listed as Homo sapiens) [ESO9-45] | <50 (SEQ. ID NO: 10) pg/ml |  |  |  |
| AARASGPGGGAPR (listed as Homo sapiens) |  | 738 (SEQ. ID NO: 28) | 844 |  |
| PMEAELARR [ESO9-99] | <50 (SEQ. ID NO: 8) pg/ml |  |  |  |
| TSGPGGGAPR (listed as Homo sapiens) |  | 346 (SEQ. ID NO: 41) | 320 |  |
| ATPMEAELAR (listed as Homo sapiens) [ESO10-97] | <50 (SEQ. ID NO: 17) pg/ml |  |  |  |
| LAQPPSGQRR (listed as Homo sapiens) [ESO10-171] | <50 (SEQ. ID NO: 22) pg/ml |  |  |  |
| AAQERRVPR (listed as Homo sapiens) [ESORF2-9-19] |  |  |  | Recognition by CTL clone 2, in words (CTL clone 2): recognized |
| TPMEAELAR (listed as Homo sapiens) [ESO9-98] | <50 (SEQ. ID NO: 7) pg/ml |  |  |  |
